Measurements as given in US12636279B2, “Choline salt forms of an HIV capsid inhibitor” (Gilead Sciences, Inc., priority 2017, dated 2026).

Columns and labels:
Human Liver Hepatocytes = assay: Test D: Metabolic Stability in Cultured Human Liver Hepatocytes; assay type: in vitro ADME; conditions: pooled cryopreserved human hepatocytes, […] radiolabelled compound, 1 million cells/mL, 0-6 hours; calculated from stability data
Protocol: Test D. Metabolic Stability in Cultured Human Liver Hepatocytes
The final hepatocyte concentration was 1 million cells/mL. The hepatocyte/compound reaction mixture was dissolved in InVitroGRO™ KHB buffer (catalog #Z99074, BioreclamationIVT, Inc., Baltimore, MD) at pH 7.4. The incubations were performed in duplicate. A cell free control and a positive control were included in the incubations. The incubations were carried out with gentle shaking in a 37° C. incubator under a humid atmosphere of 95% air/5% CO2 (v/v). Aliquots (100 mL) were removed after 0, 1, 3, and 6 hours and added to 200 mL quenching solution that comprised 0.1% (v/v) TFA in 5% water/95% acetonitrile (v/v). The samples were placed on a shaker for 10 min, followed by centrifugation at 3000 g for 30 min. The samples of the supernatant were analyzed on a Dionex HPLC/PerkinElmer Flow Scintillation Analyzer as described below.
The column was a Phenomenex Synergi fusion RP (150×4.6 mm, 4 mm) maintained at 32 degrees Celsius. Mobile Phase A consisted of 0.1% (v/v) TFA in 99% water/1% acetonitrile (v/v). Mobile Phase B consisted of 0.1% (v/v) TFA in 5% water/95% acetonitrile (v/v). […]
Metabolic stability was determined by measuring the change in relative abundance of metabolites and parent over time and calculating from it the rate of disappearance of the parent compound. […]

[1] = Atropisomer equilibrium and interconversion in solution; assay type: physicochemical; conditions: rotation along C—C bond between atropisomers
HIV-IIIb = assay: Test A: Antiviral Assay in MT4 Cells; assay type: cell-based, HIV-1; conditions: Human immunodeficiency virus 1, IIIB, MT4, 120 h
Protocol: 1 mL Aliquots of MT4 cells were pre-infected for 3 hours at 37° C. with 25 μL of cell growth medium (mock-infected) or a fresh 1:250 dilution of an HIV-IIIb concentrated ABI stock (0.004 m.o.i.). Infected and uninfected cells were diluted in cell growth media and 35 μL (2000 cells) was added to each well of the assay plates.
Assay plates were then maintained in a humidified, 5% CO2 incubator at 37° C. After 5 days of incubation, 25 μL of 2× concentrated CellTiter-Glo™ Reagent (catalog #G7573, Promega Biosciences, Inc., Madison, WI) was added to each well of the assay plate. Cell lysis was carried out by incubating at room temperature for 10 minutes and then chemiluminescence was read using an Envision plate reader (PerkinElmer).

| SMILES | Predicted Human Hepatic Clearance (Human Liver Hepatocytes) [L/h/kg] | rotational energy barrier [1] | EC50 (HIV-IIIb) [nM] |
| --- | --- | --- | --- |
| CC(C)(C#Cc1ccc(-c2ccc(Cl)c3c(NS(C)(=O)=O)nn(CC(F)(F)F)c23)c([C@H](Cc2cc(F)cc(F)c2)NC(=O)Cn2nc(C(F)(F)F)c3c2C(F)(F)[C@@H]2C[C@H]32)n1)S(C)(=O)=O [Compound 1, N—((S)-1-(3-(4-Chloro-3-(methylsulfonamido)-1-(2,2,2-trifluoroethyl)-1H-indazol-7-yl)-6-(3-methyl-3-(methylsulfonyl)but-1-yn-1-yl)pyridin-2-yl)-2-(3,5-difluorophenyl)ethyl)-2-((3bS,4aR)-5,5-difluoro-3-(trifluoromethyl)-3b,4,4a,5-tetrahydro-1H-cyclopropa[3,4]cyclopenta[1,2-c]pyrazol-1-yl)acetamide] | 0.01 | about 24 kcal/mol |  |
| Cn1nc(NS(C)(=O)=O)c2c(Cl)ccc(-c3ccc(C#CC(C)(C)O)nc3[C@H](Cc3cc(F)cc(F)c3)NC(=O)Cn3nc(C(F)(F)F)c4c3C(F)(F)[C@@H]3C[C@H]43)c21 [Compound B] |  |  | 2.99 |
